Measured values as given in patent US8426345B2, “Method of drug design” (Alchemia Limited, priority 2005, dated 2013).

Target: T1, Human SST5 somatostatin receptor (Homo sapiens, UniProt P35346)
T1 construct: expressed in transfected cells; host or cells: HEK-293 EBNA cells (membranes)
Test: Filter plate radio-ligand binding assay for SST5 receptor ([125I]SST-14 displacement)
Settings: for % SST5 radio-ligand binding displaced at conc 0.25: conc 0.25 μM; for % SST5 radio-ligand binding displaced at conc 1.0: conc 1.0 μM; for % SST5 radio-ligand binding displaced at conc 10: conc 10 μM; for % SST5 radio-ligand binding displaced at conc 0.5: conc 0.5 μM

[1] = compound conc 50 μM, 2P library
[2] = compound conc 250 μM, 2P library
[3] = compound conc 500 μM, 2P library

T1 sequence (P35346 whole entry): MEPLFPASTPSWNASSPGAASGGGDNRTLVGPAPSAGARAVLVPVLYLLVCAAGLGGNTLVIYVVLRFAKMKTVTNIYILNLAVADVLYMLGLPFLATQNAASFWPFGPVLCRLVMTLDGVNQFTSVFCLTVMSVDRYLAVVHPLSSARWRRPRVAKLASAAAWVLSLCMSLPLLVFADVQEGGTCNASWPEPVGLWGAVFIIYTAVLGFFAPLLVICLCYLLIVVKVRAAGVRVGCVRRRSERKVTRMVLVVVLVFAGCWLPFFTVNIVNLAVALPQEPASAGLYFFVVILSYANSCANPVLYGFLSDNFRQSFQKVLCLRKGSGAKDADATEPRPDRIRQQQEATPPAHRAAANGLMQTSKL

Row | SMILES | % SST5 radio-ligand binding displaced at conc 0.25 (3P library) | % SST5 radio-ligand binding displaced at conc 1.0 (3P library) | also measured
1 | COC[C@H]1O[C@H](OCc2ccc3ccccc3c2)[C@H](NC(=O)CCN)[C@@H](OCc2ccc(Cl)c(Cl)c2)[C@@H]1O [Compound 113] | ++ (% SST5 radio-ligand binding displaced at conc (μM) >60%) | ++ (% SST5 radio-ligand binding displaced at conc (μM) >60%) | 
2 | COC1C(O)C(COCc2ccc3ccccc3c2)OC(OCc2ccc3ccccc3c2)C1NC(=O)CCN (mixture of isomers) [Compound 97] | − (% SST5 radio-ligand binding displaced at cone (μM) −<40%) | + (% SST5 radio-ligand binding displaced at cone (μM) 60>+>40%) | 
3 | COC[C@H]1O[C@H](OCc2ccc3ccccc3c2)[C@H](NC(=O)CCCN)[C@@H](OCc2cccc(Cl)c2)[C@@H]1O [Compound 144] | + (% SST5 radio-ligand binding displaced at cone (μM) 60>+>40%) | ++ (% SST5 radio-ligand binding displaced at conc (μM) >60%) | 
4 | NCCC(=O)NC1C(OCc2ccc3ccccc3c2)OC(COCc2ccc(Cl)cc2)C(O)C1OCc1ccc2ccccc2c1 (stereo not drawn) [Compound 83] | − (% SST5 radio-ligand binding displaced at cone (μM) −<40%) | ++ (% SST5 radio-ligand binding displaced at conc (μM) >60%) | 
5 | COC[C@H]1OC(OCc2ccc3ccccc3c2)[C@H](NC(=O)CCN)[C@@H](OCc2ccccc2)[C@@H]1O (single isomer, unassigned) [Compound 88] | − (% SST5 radio-ligand binding displaced at cone (μM) −<40%) | − (% SST5 radio-ligand binding displaced at cone (μM) −<40%) | 
6 | NCCCC(=O)N[C@H]1[C@@H](OCc2ccc3ccccc3c2)O[C@H](COCc2ccccc2)[C@@H](O)[C@@H]1OCc1ccc(Cl)cc1 [Compound 136] | − (% SST5 radio-ligand binding displaced at cone (μM) −<40%) | ++ (% SST5 radio-ligand binding displaced at conc (μM) >60%) | 
7 | COC[C@H]1O[C@@H](SC)[C@H](NC(=O)CN)[C@@H](OCc2ccc3ccccc3c2)[C@@H]1O [Compound 10] |  |  | % SST5 radio-ligand binding displaced at conc 50 [1]: − (% SST5 radio-ligand binding displaced at cone (μM) −<40%); % SST5 radio-ligand binding displaced at conc 250 [2]: − (% SST5 radio-ligand binding displaced at cone (μM) −<40%); % SST5 radio-ligand binding displaced at conc 500 [3]: − (% SST5 radio-ligand binding displaced at cone (μM) −<40%)
8 | COCC1OC(OCc2ccc3ccccc3c2)C(NC(=O)CCN)C(OCc2ccccc2)C1O (mixture of isomers) [Compound 65] |  |  | % SST5 radio-ligand binding displaced at conc 10 (3P library): ++ (% SST5 radio-ligand binding displaced at conc (μM) >60%)
9 | CO[C@H]1[C@H](O)[C@@H](COCc2ccc(Cl)cc2)O[C@@H](SC)[C@@H]1NC(=O)CCN [Compound 15] |  |  | % SST5 radio-ligand binding displaced at conc 50 [1]: − (% SST5 radio-ligand binding displaced at cone (μM) −<40%); % SST5 radio-ligand binding displaced at conc 250 [2]: − (% SST5 radio-ligand binding displaced at cone (μM) −<40%); % SST5 radio-ligand binding displaced at conc 500 [3]: − (% SST5 radio-ligand binding displaced at cone (μM) −<40%)
10 | COC[C@H]1O[C@H](OCc2ccc3ccccc3c2)[C@H](NC(=O)CCN)[C@H](OC)[C@@H]1O [Compound 59] |  |  | % SST5 radio-ligand binding displaced at conc 50 [1]: + (% SST5 radio-ligand binding displaced at cone (μM) 60>+>40%); % SST5 radio-ligand binding displaced at conc 250 [2]: ++ (% SST5 radio-ligand binding displaced at conc (μM) >60%); % SST5 radio-ligand binding displaced at conc 500 [3]: ++ (% SST5 radio-ligand binding displaced at conc (μM) >60%)
11 | NCCC(=O)NC1C(OCc2ccc3ccccc3c2)OC(COCc2ccccc2)C(O)C1OCc1ccccc1 (mixture of isomers) [Compound 77] | − (% SST5 radio-ligand binding displaced at cone (μM) −<40%) | ++ (% SST5 radio-ligand binding displaced at conc (μM) >60%) | 
12 | COC[C@H]1O[C@H](OCc2ccc3ccccc3c2)[C@H](NC(=O)CCN2CCCCC2)[C@@H](OCc2ccc3ccccc3c2)[C@@H]1O [Compound 102] | − (% SST5 radio-ligand binding displaced at cone (μM) −<40%) | − (% SST5 radio-ligand binding displaced at cone (μM) −<40%) | 
13 | COC[C@H]1O[C@@H](OCc2ccc(Cl)cc2)[C@H](NC(=O)CN)[C@H](OC)[C@@H]1O [Compound 159] |  |  | % SST5 radio-ligand binding displaced at conc 50 (conc 50 μM, 3P library): − (% SST5 radio-ligand binding displaced at cone (μM) −<40%); % SST5 radio-ligand binding displaced at conc 250 (conc 250 μM, 3P library): − (% SST5 radio-ligand binding displaced at cone (μM) −<40%); % SST5 radio-ligand binding displaced at conc 500 (conc 500 μM, 3P library): − (% SST5 radio-ligand binding displaced at cone (μM) −<40%)
14 | COC[C@H]1O[C@@H](OCc2ccc3ccccc3c2)[C@H](NC(=O)CCCN)[C@@H](OC)[C@@H]1O [Compound 28] |  |  | % SST5 radio-ligand binding displaced at conc 50 [1]: − (% SST5 radio-ligand binding displaced at cone (μM) −<40%); % SST5 radio-ligand binding displaced at conc 250 [2]: − (% SST5 radio-ligand binding displaced at cone (μM) −<40%); % SST5 radio-ligand binding displaced at conc 500 [3]: ++ (% SST5 radio-ligand binding displaced at conc (μM) >60%)
15 | COC[C@H]1O[C@H](OCc2ccc(Cl)cc2)[C@H](NC(=O)CCN)[C@@H](OC)[C@@H]1O [Compound 19] |  |  | % SST5 radio-ligand binding displaced at conc 50 [1]: − (% SST5 radio-ligand binding displaced at cone (μM) −<40%); % SST5 radio-ligand binding displaced at conc 250 [2]: − (% SST5 radio-ligand binding displaced at cone (μM) −<40%); % SST5 radio-ligand binding displaced at conc 500 [3]: ++ (% SST5 radio-ligand binding displaced at conc (μM) >60%)
16 | COCC1OC(OCc2ccc3ccccc3c2)C(NC(=O)C2CCCCC2N)C(OCc2ccc3ccccc3c2)C1O (stereo not drawn) [Compound 105] | − (% SST5 radio-ligand binding displaced at cone (μM) −<40%) | − (% SST5 radio-ligand binding displaced at cone (μM) −<40%) | 
17 | NCCC(=O)NC1C(OCc2ccc3ccccc3c2)OC(COCc2ccc3ccccc3c2)C(O)C1OCc1ccc2ccccc2c1 (stereo not drawn) [Compound 80] | − (% SST5 radio-ligand binding displaced at cone (μM) −<40%) | ++ (% SST5 radio-ligand binding displaced at conc (μM) >60%) | 
18 | COC[C@H]1O[C@H](OCc2ccc3ccccc3c2)[C@H](NC(=O)CCN)[C@@H](OCc2ccc3ccccc3n2)[C@@H]1O [Compound 116] | + (% SST5 radio-ligand binding displaced at cone (μM) 60>+>40%) | ++ (% SST5 radio-ligand binding displaced at conc (μM) >60%) | 
19 | COC1C(O)C(COCc2ccc(Cl)cc2)OC(OCc2ccc3ccccc3c2)C1NC(=O)CCCN (mixture of isomers) [Compound 124] |  |  | % SST5 radio-ligand binding displaced at conc 0.5 (3P library): − (% SST5 radio-ligand binding displaced at cone (μM) −<40%); % SST5 radio-ligand binding displaced at conc 10 (3P library): + (% SST5 radio-ligand binding displaced at cone (μM) 60>+>40%)
20 | COC[C@H]1O[C@@H](OCc2ccc(Cl)cc2)[C@H](NC(=O)CCN)[C@H](OC)[C@@H]1O [Compound 39] |  |  | % SST5 radio-ligand binding displaced at conc 50 [1]: − (% SST5 radio-ligand binding displaced at cone (μM) −<40%); % SST5 radio-ligand binding displaced at conc 250 [2]: − (% SST5 radio-ligand binding displaced at cone (μM) −<40%); % SST5 radio-ligand binding displaced at conc 500 [3]: ++ (% SST5 radio-ligand binding displaced at conc (μM) >60%)
21 | COC[C@H]1OC(OCc2ccc3ccccc3c2)[C@H](NC(=O)CCN)[C@@H](OCc2ccc3ccccc3c2)[C@@H]1O (single isomer, unassigned) [Compound 92] | − (% SST5 radio-ligand binding displaced at cone (μM) −<40%) | + (% SST5 radio-ligand binding displaced at cone (μM) 60>+>40%) | 
22 | COC[C@H]1O[C@H](OCc2ccc3ccccc3c2)[C@H](NC(=O)CCN)[C@H](OCc2ccc3ccccc3c2)[C@@H]1O [Compound 86] |  |  | % SST5 radio-ligand binding displaced at conc 0.5 (3P library): ++ (% SST5 radio-ligand binding displaced at conc (μM) >60%); % SST5 radio-ligand binding displaced at conc 10 (3P library): ++ (% SST5 radio-ligand binding displaced at conc (μM) >60%)
23 | CO[C@H]1[C@H](O)[C@@H](COCc2ccc(Cl)cc2)O[C@@H](SC)[C@@H]1NC(=O)CN [Compound 7] |  |  | % SST5 radio-ligand binding displaced at conc 50 [1]: − (% SST5 radio-ligand binding displaced at cone (μM) −<40%); % SST5 radio-ligand binding displaced at conc 250 [2]: − (% SST5 radio-ligand binding displaced at cone (μM) −<40%); % SST5 radio-ligand binding displaced at conc 500 [3]: − (% SST5 radio-ligand binding displaced at cone (μM) −<40%)
24 | NCCCC(=O)N[C@H]1[C@@H](OCc2ccc3ccccc3c2)O[C@H](COCc2ccc(Cl)cc2)[C@@H](O)[C@@H]1OCc1ccc(Cl)cc1 [Compound 137] | − (% SST5 radio-ligand binding displaced at cone (μM) −<40%) | ++ (% SST5 radio-ligand binding displaced at conc (μM) >60%) | 
25 | COC[C@H]1OC(OCc2ccc3ccccc3c2)[C@H](NC(=O)CCN)[C@@H](OCc2ccccc2)[C@@H]1O (single isomer, unassigned) [Compound 87] | − (% SST5 radio-ligand binding displaced at cone (μM) −<40%) | − (% SST5 radio-ligand binding displaced at cone (μM) −<40%) | 
26 | COC[C@H]1OC(OCc2ccc(Cl)cc2)[C@H](NC(=O)CN)[C@@H](OCc2ccc(-c3ccccc3)cc2)[C@@H]1O (single isomer, unassigned) [Compound 172] | − (% SST5 radio-ligand binding displaced at cone (μM) −<40%) | − (% SST5 radio-ligand binding displaced at cone (μM) −<40%) | 
27 | NCCC(=O)NC1C(OCc2ccc3ccccc3c2)OC(COCc2ccccc2)C(O)C1OCc1ccc2ccccc2c1 (mixture of isomers) [Compound 74] | − (% SST5 radio-ligand binding displaced at cone (μM) −<40%) | ++ (% SST5 radio-ligand binding displaced at conc (μM) >60%) | 
28 | COC[C@H]1O[C@H](OCc2ccc3ccccc3c2)[C@H](NC(=O)C(N)CCN)[C@@H](OCc2ccc3ccccc3c2)[C@@H]1O (stereo partly drawn) [Compound 138] | − (% SST5 radio-ligand binding displaced at cone (μM) −<40%) | − (% SST5 radio-ligand binding displaced at cone (μM) −<40%) | 
